Assay results published in patent US20260083865A1, “PROSTATE SPECIFIC MEMBRANE ANTIGEN (PSMA) LIGANDS AND USE THEREOF” (priority 2022, published 2026).
Where two headings read alike, the source gives them in different places. Numbered stars: 1 amine (or outer) side, 2 acyl side, 3 side chain; on linkers, the order of the positions; unused ones are H or OH. Bridge positions count the residues as written; N and C are the ends. Square brackets hold non-standard residues; d marks the D form. Peptide text beside a SMILES is read from it. * marks the point of attachment. X11 = O=C(CCCC[C@@H]1SC[C@@H]2NC(=O)N[C@@H]21)NCCCOCCOCCOCCCNC(=O)CCC(=O)NCCCOCCOCCOCCCN*; X3 = O=C(O)CN1CCN(CC(=O)O)CCN(CC(=O)NCCCOCCOCCOCCCN*)CCN(CC(=O)O)CC1; DOTA = O=C(O)CN1CCN(CC(=O)O)CCN(CC(=O)*)CCN(CC(=O)O)CC1; Arg(NO2) = N=C(NCCC[C@H](N)C(=O)O)N[N+](=O)[O-]; Phe(4-Cl) = N[C@@H](Cc1ccc(Cl)cc1)C(=O)O; Propanoyl(3-SO2NH2) = NS(=O)(=O)CCC(=O)*; X1 = O=C(CC1CCN([*:1])CC1)[*:2]; Cit = NC(=O)NCCC[C@H](N)C(=O)O; Lys(Me) = CNCCCC[C@H](N)C(=O)O; αMeD = C[C@](N)(CC(=O)O)C(=O)O; Suc = O=C(CCC(=O)[*:2])[*:1]; Tle = CC(C)(C)[C@H](N)C(=O)O; αMeP = C[C@@]1(C(=O)O)CCCN1; Nle = CCCC[C@H](N)C(=O)O; Aib = CC(C)(N)C(=O)O

Assays:
[1] = biological target: T1, PSMA-expressing C4-2 cells (Homo sapiens, UniProt Q04609); assay: FACS binding assay (competition with 50 nM PSM-0183); settings: read-out: pIC50 [C4-2] CAT (converted)
T1 construct: PSMA-expressing C4-2 cells (ATCC, Cat. No. CRL-3314) were cultured in RPMI-1640; host or cells: C4-2 cells
T1 sequence (Q04609 whole entry): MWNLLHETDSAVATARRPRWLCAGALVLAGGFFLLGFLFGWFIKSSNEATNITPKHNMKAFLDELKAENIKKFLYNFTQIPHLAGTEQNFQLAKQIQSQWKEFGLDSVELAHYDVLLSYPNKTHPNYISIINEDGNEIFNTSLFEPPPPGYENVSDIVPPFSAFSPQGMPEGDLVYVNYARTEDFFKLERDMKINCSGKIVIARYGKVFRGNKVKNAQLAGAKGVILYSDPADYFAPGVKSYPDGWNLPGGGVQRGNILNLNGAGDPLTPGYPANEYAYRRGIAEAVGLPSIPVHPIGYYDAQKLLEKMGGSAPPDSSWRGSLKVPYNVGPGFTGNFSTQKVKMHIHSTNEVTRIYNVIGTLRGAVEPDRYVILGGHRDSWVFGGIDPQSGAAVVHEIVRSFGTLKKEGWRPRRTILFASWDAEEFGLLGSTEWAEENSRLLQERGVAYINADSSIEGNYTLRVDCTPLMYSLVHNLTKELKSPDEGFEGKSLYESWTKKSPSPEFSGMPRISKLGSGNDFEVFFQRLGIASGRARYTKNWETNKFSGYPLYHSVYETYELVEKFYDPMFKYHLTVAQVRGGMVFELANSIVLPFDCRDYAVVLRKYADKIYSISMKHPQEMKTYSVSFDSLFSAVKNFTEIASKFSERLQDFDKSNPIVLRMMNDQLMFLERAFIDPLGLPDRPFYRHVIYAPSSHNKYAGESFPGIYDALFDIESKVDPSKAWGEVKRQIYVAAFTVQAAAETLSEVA
Method in brief: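 C4-2 cells were incubated 1 h at 4 °C with 50 nM AF488-labelled peptide PSM-0183 plus increasing test compound concentrations, then washed twice in ice-cold buffer. Median fluorescence in the AF488 channel was read by flow cytometry. IC50/pIC50 was derived by 4PL fitting of MFI versus concentration.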

[2] = biological target: T2, Fc-fusion protein of human PSMA (hPSMA-Fc) (Homo sapiens, UniProt Q04609); assay: Surface plasmon resonance assay (Biacore T200, single cycle kinetic); type: binding; settings: read-out: pKD CAT (converted)
T2 construct: purchased Acro Biosystems PSA-H5264
T2 sequence (Q04609 44-750 limits assumed): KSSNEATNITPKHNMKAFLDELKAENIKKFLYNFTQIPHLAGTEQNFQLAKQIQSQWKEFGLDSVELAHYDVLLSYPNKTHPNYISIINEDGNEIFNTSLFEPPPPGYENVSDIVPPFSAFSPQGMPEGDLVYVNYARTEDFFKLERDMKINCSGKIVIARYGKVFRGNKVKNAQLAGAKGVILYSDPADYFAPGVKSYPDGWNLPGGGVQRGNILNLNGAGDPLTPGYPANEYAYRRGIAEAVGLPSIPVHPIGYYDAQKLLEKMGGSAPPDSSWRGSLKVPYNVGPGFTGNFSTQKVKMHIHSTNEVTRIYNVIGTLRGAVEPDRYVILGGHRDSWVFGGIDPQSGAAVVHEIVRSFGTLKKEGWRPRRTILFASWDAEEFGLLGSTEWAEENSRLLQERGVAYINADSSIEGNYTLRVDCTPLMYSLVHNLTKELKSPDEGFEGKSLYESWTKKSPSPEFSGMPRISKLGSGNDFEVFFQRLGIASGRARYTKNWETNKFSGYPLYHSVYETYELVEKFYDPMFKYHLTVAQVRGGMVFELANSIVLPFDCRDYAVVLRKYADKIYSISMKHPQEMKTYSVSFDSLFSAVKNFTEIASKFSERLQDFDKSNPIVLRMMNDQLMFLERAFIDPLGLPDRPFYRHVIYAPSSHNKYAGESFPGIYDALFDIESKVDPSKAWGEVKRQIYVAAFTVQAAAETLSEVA
Method in brief: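 hPSMA-Fc was captured (~1000 RU) on an Fc-binding-peptide CM5 chip, and compounds were run in single cycle kinetic mode at 25° C in HBST with 0.1% DMSO. Double-blank-corrected sensorgrams were fitted to a 1:1 Langmuir model to give KD, reported as pKD.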

[3] = pIC50 category of FACS binding, C4-2 cells
[4] = pKD category for PSMA SPR activity assay, hPSMA-Fc, 25° C.
[5] = FACS binding, PSMA-expressing C4-2 cells, pIC50 category
[6] = PSMA SPR assay, hPSMA-Fc, 25° C., pKD category

Structure (SMILES)	IC50 [1, 3] [µM]	Kd [2, 4] [µM]	IC50 [1, 5] [µM]	Kd [2, 6] [µM]	also measured
CC(=O)N[C@H](C(=O)N1CCC[C@@]1(C)C(=O)N[C@@H](Cc1ccccc1)C(=O)N[C@H]1CSSC[C@@H](C(=O)N[C@H](C(=O)N[C@H](C(N)=O)[C@@H](C)O)C(C)(C)C)NC(=O)[C@H](CC(N)=O)NC(=O)C(C)(C)NC(=O)[C@H](CCCNC(=N)N)NC(=O)[C@H](CCCCN)NC1=O)[C@@H](C)O [PSM-0508, Ac-Thr-Pam-Phe-[Cys-Lys-Arg-Aib-Asn-Cys]-Tle-Thr-NH2] (Ac-T[αMeP]FCKR[Aib]NC[Tle]T-NH2; disulfide 4-9)	< 0.2	< 0.0126			
CC(=O)N[C@H](C(=O)NC(C)(C)C(=O)N[C@@H](Cc1ccc(Cl)cc1)C(=O)N[C@H]1CSSC[C@@H](C(=O)N[C@H](C(=O)N[C@H](C(=O)N[C@@H](CC(=O)O)C(N)=O)[C@@H](C)O)C(C)(C)C)NC(=O)[C@H](CC(N)=O)NC(=O)C(C)(C)NC(=O)[C@H](CCCNC(=N)N)NC(=O)[C@H](CCCCN)NC1=O)[C@@H](C)O [PSM-0318, Ac-Thr-Aib-Pcf-[Cys-Lys-Arg-Aib-Asn-Cys]-Tle-Thr-Asp-NH2] (Ac-T[Aib][Phe(4-Cl)]CKR[Aib]NC[Tle]TD-NH2; disulfide 4-9)			< 0.2	< 0.0126	
CC(=O)N[C@H](C(=O)NC(C)(C)C(=O)N[C@@H](Cc1ccc(Cl)cc1)C(=O)N[C@H]1CSSC[C@@H](C(=O)N[C@H](C(=O)N[C@H](C(=O)N2CCC(CC(=O)N[C@H](CCCCNC(=O)CN3CCN(CC(=O)O)CCN(CC(=O)O)CCN(CC(=O)O)CC3)C(N)=O)CC2)[C@@H](C)O)C(C)(C)C)NC(=O)[C@H](CC(N)=O)NC(=O)C(C)(C)NC(=O)[C@H](CCCNC(N)=O)NC(=O)[C@H](CCCCN)NC1=O)[C@@H](C)O [PSM-0329, Ac-Thr-Aib-Pcf-[Cys-Lys-Cit-Aib-Asn-Cys]-Tle-Thr-Cmp-lys(DOTA)-NH2] (Ac-T[Aib][Phe(4-Cl)]CK[Cit][Aib]NC[Tle]T[X1][dK](DOTA)-NH2; disulfide 4-9)			< 0.2	0.0126 to 0.126	
C[C@@H](O)[C@H](NC(=O)[C@@H](NC(=O)[C@@H]1CSSC[C@H](NC(=O)[C@H](Cc2ccc(Cl)cc2)NC(=O)C(C)(C)NC(=O)CCS(N)(=O)=O)C(=O)N[C@@H](CCCCN)C(=O)N[C@@H](CCCNC(=N)N)C(=O)NC(C)(C)C(=O)N[C@@H](CC(N)=O)C(=O)N1)C(C)(C)C)C(=O)N[C@H](CCCCNC(=O)CN1CCN(CC(=O)O)CCN(CC(=O)O)CCN(CC(=O)O)CC1)C(N)=O [PSM-0328, SaPr-Aib-Pcf-[Cys-Lys-Arg-Aib-Asn-Cys]-Tle-Thr-lys(DOTA)-NH2] ({Propanoyl(3-SO2NH2)}-[Aib][Phe(4-Cl)]CKR[Aib]NC[Tle]T[dK](DOTA)-NH2; disulfide 3-8)			< 0.2	< 0.0126	
C[C@@H](O)[C@H](NC(=O)[C@@H](NC(=O)[C@@H]1CSSC[C@H](NC(=O)[C@H](Cc2ccccc2)NC(=O)C(C)(C)NC(=O)CC2CCN(C(=O)CN3CCN(CC(=O)O)CCN(CC(=O)O)CCN(CC(=O)O)CC3)CC2)C(=O)N[C@@H](CCCCN)C(=O)N[C@@H](CCCNC(=N)N)C(=O)NC(C)(C)C(=O)N[C@@H](CC(N)=O)C(=O)N1)C(C)(C)C)C(N)=O [PSM-0507, DOTA-Cmp-Aib-Pho-[Cys-Lys-Arg-Aib-Asn-Cys]-Tle-Thr-NH2] ({DOTA}-[X1][Aib]FCKR[Aib]NC[Tle]T-NH2; disulfide 4-9)	< 0.2	0.0126 to 0.126			
CC(=O)N[C@H](C(=O)NC(C)(C)C(=O)N[C@@H](Cc1ccccc1)C(=O)N[C@H]1CSSC[C@@H](C(=O)N[C@H](C(=O)N[C@H](C(=O)N[C@H](CCCCNC(=O)CN2CCN(CC(=O)O)CCN(CC(=O)O)CCN(CC(=O)O)CC2)C(N)=O)[C@@H](C)O)C(C)(C)C)NC(=O)[C@H](CC(N)=O)NC(=O)C(C)(C)NC(=O)[C@H](CCCNC(=N)N)NC(=O)[C@H](CCCCN)NC1=O)[C@@H](C)O [PSM-0288, Ac-Thr-Aib-Phe-[Cys-Lys-Arg-Aib-Asn-Cys]-Tle-Thr-lys(DOTA)-NH2] (Ac-T[Aib]FCKR[Aib]NC[Tle]T[dK](DOTA)-NH2; disulfide 4-9)			< 0.2	< 0.0126	
CC(=O)N[C@H](C(=O)NC(C)(C)C(=O)N[C@@H](Cc1ccc(Cl)cc1)C(=O)N[C@H]1CSSC[C@@H](C(=O)N[C@H](CC(C)C)C(=O)N[C@H](C(N)=O)[C@@H](C)O)NC(=O)[C@H](CC(N)=O)NC(=O)C(C)(C)NC(=O)[C@H](CCCNC(N)=O)NC(=O)[C@H](CCCCN)NC1=O)[C@@H](C)O [PSM-0421, Ac-Thr-Aib-Pcf-[Cys-Lys-Cit-Aib-Asn-Cys]-leu-Thr-NH2] (Ac-T[Aib][Phe(4-Cl)]CK[Cit][Aib]NC[dL]T-NH2; disulfide 4-9)	0.2 to 1.26	0.126 to 0.501			
C[C@@H](O)[C@H](NC(=O)[C@@H](NC(=O)[C@@H]1CSSC[C@H](NC(=O)[C@H](Cc2ccc(Cl)cc2)NC(=O)C(C)(C)NC(=O)[C@@H](NC(=O)CCC(=O)NCCCOCCOCCOCCCNC(=O)CCC(=O)NCCCOCCOCCOCCCNC(=O)CCCC[C@@H]2SC[C@@H]3NC(=O)N[C@@H]32)[C@@H](C)O)C(=O)N[C@@H](CCCCN)C(=O)N[C@@H](CCCNC(=N)N)C(=O)NC(C)(C)C(=O)N[C@@H](CC(N)=O)C(=O)N1)C(C)(C)C)C(N)=O [PSM-0575, Bio-Ttds-Ttds-Thr-Aib-Pcf-[Cys-Lys-Arg-Aib-Asn-Cys]-Tle-Thr-NH2] ({X11-Suc}-T[Aib][Phe(4-Cl)]CKR[Aib]NC[Tle]T-NH2; disulfide 4-9)					IC50 ([1]; FACS binding, C4-2 cells, category): < 0.2 µM; Kd ([2]; PSMA SPR assay, category): < 0.0126 µM
C[C@@H](O)[C@H](NC(=O)[C@@H](NC(=O)[C@@H]1CSSC[C@H](NC(=O)[C@H](Cc2ccc(Cl)cc2)NC(=O)C(C)(C)NC(=O)[C@@H](NC(=O)CC2CCN(C(=O)CN3CCN(CC(=O)O)CCN(CC(=O)O)CCN(CC(=O)O)CC3)CC2)[C@@H](C)O)C(=O)N[C@@H](CCCCN)C(=O)N[C@@H](CCCNC(=N)N)C(=O)N[C@@](C)(CC(=O)O)C(=O)N[C@@H](CC(N)=O)C(=O)N1)C(C)(C)C)C(N)=O [PSM-0302, DOTA-Cmp-Thr-Aib-Pcf-[Cys-Lys-Arg-Amd-Asn-Cys]-Tle-Thr-NH2] ({DOTA}-[X1]T[Aib][Phe(4-Cl)]CKR[αMeD]NC[Tle]T-NH2; disulfide 5-10)			< 0.2	< 0.0126	
CNCCCC[C@@H]1NC(=O)[C@@H](NC(=O)[C@H](Cc2ccc(Cl)cc2)NC(=O)C(C)(C)NC(=O)[C@@H](NC(=O)CC2CCN(C(=O)CN3CCN(CC(=O)O)CCN(CC(=O)O)CCN(CC(=O)O)CC3)CC2)[C@@H](C)O)CSSC[C@@H](C(=O)N[C@H](C(=O)N[C@H](C(N)=O)[C@@H](C)O)C(C)(C)C)NC(=O)[C@H](CC(N)=O)NC(=O)C(C)(C)NC(=O)[C@H](CCCNC(=N)N[N+](=O)[O-])NC1=O [PSM-0254, DOTA-Cmp-Thr-Aib-Pcf-[Cys-Lys(Me)-Eew-Aib-Asn-Cys]-Tle-Thr-NH2] ({DOTA}-[X1]T[Aib][Phe(4-Cl)]C[Lys(Me)][Arg(NO2)][Aib]NC[Tle]T-NH2; disulfide 5-10)					IC50 ([1]; FACS binding, C4-2 cells, competition with 50 nM PSM-0183, category): < 0.2 µM; Kd ([2]; SPR, hPSMA-Fc, single cycle kinetic, 25° C., category): < 0.0126 µM
CC(=O)N[C@H](C(=O)NC(C)(C)C(=O)N[C@@H](Cc1ccccc1)C(=O)N[C@H]1CSSC[C@@H](C(=O)N[C@H](C(=O)N[C@H](C(N)=O)[C@@H](C)O)C(C)(C)C)NC(=O)[C@H](CC(C)C)NC(=O)C(C)(C)NC(=O)[C@H](CCCNC(=N)N)NC(=O)[C@H](CCCCN)NC1=O)[C@@H](C)O [PSM-0545, Ac-Thr-Aib-Phe-[Cys-Lys-Arg-Aib-Leu-Cys]-Tle-Thr-NH2] (Ac-T[Aib]FCKR[Aib]LC[Tle]T-NH2; disulfide 4-9)	< 0.2	< 0.0126			
C[C@@H]1NC(=O)[C@H](CCCNC(=N)N)NC(=O)[C@H](CCCCN)NC(=O)[C@@H](NC(=O)[C@H](Cc2ccccc2)NC(=O)[C@H](C)NC(=O)[C@@H](NC(=O)CCC(=O)NCCCOCCOCCOCCCNC(=O)CN2CCN(CC(=O)O)CCN(CC(=O)O)CCN(CC(=O)O)CC2)[C@@H](C)O)CSSC[C@@H](C(=O)N[C@H](C(=O)N[C@H](C(=O)N[C@@H](CC(=O)O)C(N)=O)[C@@H](C)O)C(C)(C)C)NC(=O)[C@H](CC(N)=O)NC1=O [PSM-0342, DOTA-Ttds-Thr-Ala-Phe-[Cys-Lys-Arg-Ala-Asn-Cys]-Tle-Thr-Asp-NH2] ({X3-Suc}-TAFCKRANC[Tle]TD-NH2; disulfide 4-9)			< 0.2	0.0126 to 0.126	
CCCC[C@H](NC(=O)[C@@H]1CSSC[C@H](NC(=O)[C@H](Cc2ccccc2)NC(=O)[C@H](C)NC(=O)[C@@H](NC(C)=O)[C@@H](C)O)C(=O)N[C@@H](CCCCN)C(=O)N[C@@H](CCCNC(=N)N)C(=O)N[C@@H](C)C(=O)N[C@@H](CC(N)=O)C(=O)N1)C(=O)N[C@@H](C)C(=O)N[C@@H](CC(=O)O)C(N)=O [PSM-0476, Ac-Thr-Als-Phe-[Cys-Lys-Arg-Ala-Asn-Cys]-Nle-Als-Asp-NH2] (Ac-TAFCKRANC[Nle]AD-NH2; disulfide 4-9)	0.2 to 1.26	0.126 to 0.501			
CC(=O)N[C@H](C(=O)NC(C)(C)C(=O)N[C@@H](Cc1ccccc1)C(=O)N[C@H]1CSSC[C@@H](C(=O)N[C@H](C(=O)N[C@H](C(N)=O)[C@@H](C)O)C(C)(C)C)NC(=O)[C@H](CC(N)=O)NC(=O)[C@H](CCCCNC(=O)CN2CCN(CC(=O)O)CCN(CC(=O)O)CCN(CC(=O)O)CC2)NC(=O)[C@H](CCC(N)=O)NC(=O)[C@H](CCCCN)NC1=O)[C@@H](C)O [PSM-0385, Ac-Thr-Aib-Pho-[Cys-Lys-Gln-Lys(DOTA)-Asn-Cys]-Tle-Thr-NH2] (Ac-T[Aib]FCKQK(DOTA)NC[Tle]T-NH2; disulfide 4-9)	0.2 to 1.26	0.126 to 0.501			
